What was measured:
Test in all cases: scanMax kinase panel (Eurofins)
Type in all cases: binding
[1] = target: T1, ABL1(E255K)-phosphorylated (Homo sapiens, UniProt P00519, E255K); details: read-out: % control
T1 construct: purchased Eurofins
Method: (§1) The following assay method was performed to evaluate the inhibitory activities of a compound according to the present invention with respect to various enzymes. […] The compound was applied to the enzyme at a concentration of 1 μM, dissolved in DMSO, and the % control was determined according to Equation 1 below.
(§2) Here, the positive control refers to a compound corresponding to 0% control, and the negative control refers to a compound corresponding to 100% control.

[2] = target: T2, ABL1(H396P)-phosphorylated (Homo sapiens, UniProt P00519, H396P); details: read-out: % control
T2 construct: purchased Eurofins
Method: as §1, §2

[3] = target: T3, ABL1(M351T)-phosphorylated (Homo sapiens, UniProt P00519, M351T); details: read-out: % control
T3 construct: purchased Eurofins
Method: as §1, §2

[4] = target: T4, ABL1(T315I)-nonphosphorylated (Homo sapiens, UniProt P00519, T315I); details: read-out: % control
T4 construct: purchased Eurofins
Method: as §1, §2

[5] = target: T5, ABL1(Y253F)-phosphorylated (Homo sapiens, UniProt P00519, Y253F); details: read-out: % control
T5 construct: purchased Eurofins
Method: as §1, §2

ABL1-nonphosphorylated = target: T6, ABL1-nonphosphorylated (Homo sapiens, UniProt P00519); details: read-out: % control
T6 construct: purchased Eurofins
Method: as §1, §2

ABL1-phosphorylated = target: T7, ABL1-phosphorylated (Homo sapiens, UniProt P00519); details: read-out: % control
T7 construct: purchased Eurofins
Method: as §1, §2

AURKA = target: T8, AURKA (Homo sapiens, UniProt O14965); details: read-out: % control
T8 construct: purchased Eurofins
Method: as §1, §2

AURKC = target: T9, AURKC (Homo sapiens, UniProt Q9UQB9); details: read-out: % control
T9 construct: purchased Eurofins
Method: as §1, §2

AXL = target: T10, AXL (Homo sapiens, UniProt P30530); details: read-out: % control
T10 construct: purchased Eurofins
Method: as §1, §2

CDK4-cyclinD3 = target: T11, CDK4-cyclinD3 (Homo sapiens, UniProt P11802); details: CDK4-cyclinD3, 1 μM; read-out: % control
T11 construct: purchased Eurofins scanMax® kinase panel
Method: as §1, §2

CDK4-cycllinDl = target: T12, CDK4-cycllinDl (Homo sapiens, UniProt P11802); details: read-out: % control
T12 construct: purchased Eurofins
Method: as §1, §2

DYRK2 = target: T13, DYRK2 (Homo sapiens, UniProt Q92630); details: DYRK2, 1 μM; read-out: % control
T13 construct: purchased Eurofins scanMax® kinase panel
Method: as §1, §2

ERK1 = target: T14, ERK1 (Homo sapiens, UniProt P27361); details: ERK1, 1 μM; read-out: % control
T14 construct: purchased Eurofins scanMax® kinase panel
Method: as §1, §2

ERK2 = target: T15, ERK2 (Homo sapiens, UniProt P28482); details: ERK2, 1 μM; read-out: % control
T15 construct: purchased Eurofins scanMax® kinase panel
Method: as §1, §2

ERK4 = target: T16, ERK4 (Homo sapiens, UniProt P31152); details: ERK4, 1 μM; read-out: % control
T16 construct: purchased Eurofins scanMax® kinase panel
Method: as §1, §2

ERK8 = target: T17, ERK8 (Homo sapiens, UniProt Q8TD08); details: ERK8, 1 μM; read-out: % control
T17 construct: purchased Eurofins scanMax® kinase panel
Method: as §1, §2

GSK3A = target: T18, GSK3A (Homo sapiens, UniProt P49840); details: read-out: % control
T18 construct: purchased Eurofins scanMax® kinase panel
Method: as §1, §2

HIPK2 = target: T19, HIPK2 (Homo sapiens, UniProt Q9H2X6); details: HIPK2, 1 μM; read-out: % control
T19 construct: purchased Eurofins scanMax® kinase panel
Method: as §1, §2

HIPK4 = target: T20, HIPK4 (Homo sapiens, UniProt Q8NE63); details: HIPK4, 1 μM; read-out: % control
T20 construct: purchased Eurofins
Method: as §1, §2

[6] = target: T21, JAK1(JH2domain-pseudokinase) (Homo sapiens, UniProt P23458); details: read-out: % control
T21 construct: JAK1(JH2domain-pseudokinase); purchased Eurofins
Method: as §1, §2

[7] = target: T22, JAKI(JH1domain-catalytic) (Homo sapiens, UniProt P23458); details: read-out: % control
T22 construct: JAKI(JH1domain-catalytic); purchased Eurofins
Method: as §1, §2

KIT(D816H) = target: T23, KIT(D816H) (Homo sapiens, UniProt P10721, D816H); details: read-out: % control
T23 construct: purchased Eurofins
Method: as §1, §2

KIT(V559D, T670I) = target: T24, KIT(V559D, T670I) (Homo sapiens, UniProt P10721, T670I/V559D); details: read-out: % control
T24 construct: purchased Eurofins
Method: as §1, §2

MAP3K3 = target: T25, MAP3K3 (Homo sapiens, UniProt Q99759); details: MAP3K3, 1 μM; read-out: % control
T25 construct: purchased Eurofins
Method: as §1, §2

MEK2 = target: T26, MEK2 (Homo sapiens, UniProt P36507); details: MEK2, 1 μM; read-out: % control
T26 construct: purchased Eurofins
Method: as §1, §2

MEKI = target: T27, MEKI (Homo sapiens, UniProt Q02750); details: read-out: % control
T27 construct: purchased Eurofins
Method: as §1, §2

PAK2 = target: T28, PAK2 (Homo sapiens, UniProt Q13177); details: PAK2, 1 μM; read-out: % control
T28 construct: purchased Eurofins scanMax kinase panel
Method: as §1, §2

PAK3 = target: T29, PAK3 (Homo sapiens, UniProt O75914); details: PAK3, 1 μM; read-out: % control
T29 construct: purchased Eurofins scanMax kinase panel
Method: as §1, §2

PAK5 = details: PAK5, 1 μM
Method: as §1, §2

PAKI = target: T30, PAKI (Homo sapiens, UniProt Q13153); details: read-out: % control
T30 construct: purchased Eurofins scanMax kinase panel
Method: as §1, §2

ROCK2 = target: T31, ROCK2 (Homo sapiens, UniProt O75116); details: ROCK2, 1 μM; read-out: % control
T31 construct: purchased Eurofins scanMax kinase panel
Method: as §1, §2

ROCKI = target: T32, ROCKI (Homo sapiens, UniProt Q13464); details: read-out: % control
T32 construct: purchased Eurofins scanMax kinase panel
Method: as §1, §2

YES1 = target: T33, YES1 (Homo sapiens, UniProt P07947); details: YES1, 1 μM; read-out: % control
T33 construct: purchased Eurofins scanMax kinase panel
Method: as §1, §2

T26 sequence (P36507 whole entry): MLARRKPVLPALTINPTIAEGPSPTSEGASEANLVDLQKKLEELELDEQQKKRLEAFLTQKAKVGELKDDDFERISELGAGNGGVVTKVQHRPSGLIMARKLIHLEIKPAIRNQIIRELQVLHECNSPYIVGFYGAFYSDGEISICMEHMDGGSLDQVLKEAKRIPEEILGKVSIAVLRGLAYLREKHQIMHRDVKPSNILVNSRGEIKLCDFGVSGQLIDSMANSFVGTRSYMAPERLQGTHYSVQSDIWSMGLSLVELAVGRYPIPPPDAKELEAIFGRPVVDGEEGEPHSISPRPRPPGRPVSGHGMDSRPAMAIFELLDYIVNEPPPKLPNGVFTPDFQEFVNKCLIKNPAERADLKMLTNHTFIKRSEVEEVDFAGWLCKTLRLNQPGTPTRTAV
T20 sequence (Q8NE63 whole entry): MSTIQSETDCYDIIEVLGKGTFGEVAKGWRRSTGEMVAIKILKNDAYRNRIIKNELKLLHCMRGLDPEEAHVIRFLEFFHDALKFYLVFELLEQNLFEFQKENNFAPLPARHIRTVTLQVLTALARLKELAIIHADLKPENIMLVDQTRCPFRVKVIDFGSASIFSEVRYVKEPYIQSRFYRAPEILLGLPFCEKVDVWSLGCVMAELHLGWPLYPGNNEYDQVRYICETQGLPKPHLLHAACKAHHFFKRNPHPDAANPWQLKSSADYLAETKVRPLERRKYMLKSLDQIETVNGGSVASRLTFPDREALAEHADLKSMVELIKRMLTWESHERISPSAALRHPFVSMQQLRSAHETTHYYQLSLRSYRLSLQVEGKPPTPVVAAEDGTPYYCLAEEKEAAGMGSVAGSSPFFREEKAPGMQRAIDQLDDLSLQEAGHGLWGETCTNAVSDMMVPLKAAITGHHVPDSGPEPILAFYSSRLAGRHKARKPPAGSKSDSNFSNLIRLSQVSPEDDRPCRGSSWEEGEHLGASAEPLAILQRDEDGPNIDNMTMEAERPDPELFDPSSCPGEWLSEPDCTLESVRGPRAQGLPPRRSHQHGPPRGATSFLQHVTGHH
T22 sequence (P23458 875-1153 limits assumed): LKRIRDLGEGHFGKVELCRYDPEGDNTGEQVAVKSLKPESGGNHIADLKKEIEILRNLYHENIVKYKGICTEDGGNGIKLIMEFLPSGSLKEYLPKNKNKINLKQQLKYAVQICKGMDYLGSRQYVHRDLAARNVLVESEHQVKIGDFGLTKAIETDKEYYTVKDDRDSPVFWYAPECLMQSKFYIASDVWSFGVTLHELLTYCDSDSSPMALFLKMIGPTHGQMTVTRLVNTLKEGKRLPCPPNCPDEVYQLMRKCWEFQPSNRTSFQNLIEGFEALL
T23 sequence (P10721 26-976 D816H): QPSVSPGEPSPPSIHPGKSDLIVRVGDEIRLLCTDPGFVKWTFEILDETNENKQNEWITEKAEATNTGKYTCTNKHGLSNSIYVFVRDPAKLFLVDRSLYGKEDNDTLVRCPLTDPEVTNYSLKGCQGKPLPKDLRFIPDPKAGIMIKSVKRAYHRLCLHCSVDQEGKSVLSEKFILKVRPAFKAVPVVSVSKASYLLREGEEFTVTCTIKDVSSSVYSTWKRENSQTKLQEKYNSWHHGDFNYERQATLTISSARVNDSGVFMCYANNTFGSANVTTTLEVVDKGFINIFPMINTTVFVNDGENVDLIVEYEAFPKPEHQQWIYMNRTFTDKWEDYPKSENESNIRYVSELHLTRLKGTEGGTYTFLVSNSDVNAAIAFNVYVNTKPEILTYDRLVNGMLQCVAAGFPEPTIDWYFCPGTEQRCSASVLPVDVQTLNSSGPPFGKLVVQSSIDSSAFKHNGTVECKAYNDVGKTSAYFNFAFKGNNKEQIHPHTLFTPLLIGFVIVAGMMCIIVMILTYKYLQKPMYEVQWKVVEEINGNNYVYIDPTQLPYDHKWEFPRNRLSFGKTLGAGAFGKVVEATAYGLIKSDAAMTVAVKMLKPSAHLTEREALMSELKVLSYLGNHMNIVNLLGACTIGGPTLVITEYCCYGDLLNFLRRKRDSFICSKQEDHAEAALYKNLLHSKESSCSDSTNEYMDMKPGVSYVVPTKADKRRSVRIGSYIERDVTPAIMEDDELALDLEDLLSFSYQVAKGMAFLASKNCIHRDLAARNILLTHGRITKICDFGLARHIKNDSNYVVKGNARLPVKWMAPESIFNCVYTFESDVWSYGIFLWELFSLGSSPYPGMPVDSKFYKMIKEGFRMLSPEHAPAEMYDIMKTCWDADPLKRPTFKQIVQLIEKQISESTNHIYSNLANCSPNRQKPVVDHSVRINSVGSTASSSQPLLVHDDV
T30 sequence (Q13153 whole entry): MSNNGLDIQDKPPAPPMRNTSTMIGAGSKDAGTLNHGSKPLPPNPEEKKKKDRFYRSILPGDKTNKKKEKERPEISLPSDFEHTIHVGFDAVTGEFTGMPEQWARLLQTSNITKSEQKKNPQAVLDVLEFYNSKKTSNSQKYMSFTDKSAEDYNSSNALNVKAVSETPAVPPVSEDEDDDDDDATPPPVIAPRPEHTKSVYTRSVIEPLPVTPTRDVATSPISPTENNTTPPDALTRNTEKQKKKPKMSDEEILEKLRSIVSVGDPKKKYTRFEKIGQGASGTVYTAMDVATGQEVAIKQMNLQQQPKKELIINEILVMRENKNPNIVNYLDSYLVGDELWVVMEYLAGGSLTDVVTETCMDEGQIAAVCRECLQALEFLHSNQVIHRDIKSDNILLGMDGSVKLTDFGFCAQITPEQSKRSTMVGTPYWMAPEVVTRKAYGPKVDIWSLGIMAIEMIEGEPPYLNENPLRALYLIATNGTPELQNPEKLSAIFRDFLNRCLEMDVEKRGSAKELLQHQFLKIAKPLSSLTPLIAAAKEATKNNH
T11 sequence (P11802 whole entry): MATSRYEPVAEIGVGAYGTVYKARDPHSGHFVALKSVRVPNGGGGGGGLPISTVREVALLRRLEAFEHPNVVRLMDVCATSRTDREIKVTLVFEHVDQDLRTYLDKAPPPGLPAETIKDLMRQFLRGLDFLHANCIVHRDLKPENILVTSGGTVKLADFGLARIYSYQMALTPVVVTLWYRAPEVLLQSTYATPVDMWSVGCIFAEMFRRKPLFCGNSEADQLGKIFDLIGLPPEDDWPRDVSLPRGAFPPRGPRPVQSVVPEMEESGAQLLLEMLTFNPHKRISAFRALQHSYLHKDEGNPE
T11 sequence (P30281 whole entry partner): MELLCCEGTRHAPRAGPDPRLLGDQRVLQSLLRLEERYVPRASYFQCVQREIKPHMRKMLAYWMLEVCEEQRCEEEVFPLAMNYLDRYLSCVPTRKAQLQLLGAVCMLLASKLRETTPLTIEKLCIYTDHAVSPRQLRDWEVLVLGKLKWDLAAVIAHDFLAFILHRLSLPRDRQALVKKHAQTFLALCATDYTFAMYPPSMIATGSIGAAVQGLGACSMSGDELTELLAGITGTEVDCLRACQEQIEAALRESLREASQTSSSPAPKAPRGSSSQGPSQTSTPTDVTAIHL
T12 sequence (P11802 whole entry): as the sequence (P11802 whole entry) above
T12 sequence (P24385 whole entry partner): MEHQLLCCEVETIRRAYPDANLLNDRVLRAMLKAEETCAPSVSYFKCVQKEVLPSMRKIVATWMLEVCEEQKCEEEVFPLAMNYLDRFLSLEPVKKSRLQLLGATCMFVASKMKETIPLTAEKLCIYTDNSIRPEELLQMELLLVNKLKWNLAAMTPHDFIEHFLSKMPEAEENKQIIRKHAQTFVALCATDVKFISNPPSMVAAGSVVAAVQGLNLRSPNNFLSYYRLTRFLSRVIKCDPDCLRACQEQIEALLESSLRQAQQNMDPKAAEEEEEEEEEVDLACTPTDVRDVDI
T28 sequence (Q13177 whole entry): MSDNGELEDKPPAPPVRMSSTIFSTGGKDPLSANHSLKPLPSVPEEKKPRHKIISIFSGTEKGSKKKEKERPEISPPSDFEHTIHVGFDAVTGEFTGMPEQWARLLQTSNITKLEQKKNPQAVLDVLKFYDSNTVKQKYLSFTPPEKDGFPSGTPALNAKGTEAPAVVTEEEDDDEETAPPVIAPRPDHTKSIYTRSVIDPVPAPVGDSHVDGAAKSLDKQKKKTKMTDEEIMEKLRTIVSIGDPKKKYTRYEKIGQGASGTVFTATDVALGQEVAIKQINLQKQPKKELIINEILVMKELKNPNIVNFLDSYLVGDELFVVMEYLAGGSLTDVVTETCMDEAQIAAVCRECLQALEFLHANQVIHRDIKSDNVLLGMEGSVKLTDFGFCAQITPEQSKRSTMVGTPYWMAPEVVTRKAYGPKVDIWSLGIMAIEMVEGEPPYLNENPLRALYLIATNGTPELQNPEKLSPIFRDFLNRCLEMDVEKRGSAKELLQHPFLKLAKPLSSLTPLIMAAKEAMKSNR
T9 sequence (Q9UQB9 whole entry): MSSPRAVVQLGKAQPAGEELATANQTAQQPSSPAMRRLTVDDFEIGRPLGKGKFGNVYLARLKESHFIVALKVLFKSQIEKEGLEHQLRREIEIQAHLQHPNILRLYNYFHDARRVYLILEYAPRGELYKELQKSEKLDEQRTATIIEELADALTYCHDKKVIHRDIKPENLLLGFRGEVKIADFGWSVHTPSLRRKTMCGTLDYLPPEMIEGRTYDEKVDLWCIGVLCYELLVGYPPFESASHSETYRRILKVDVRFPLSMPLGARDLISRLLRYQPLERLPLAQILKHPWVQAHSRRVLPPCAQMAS
T27 sequence (Q02750 whole entry): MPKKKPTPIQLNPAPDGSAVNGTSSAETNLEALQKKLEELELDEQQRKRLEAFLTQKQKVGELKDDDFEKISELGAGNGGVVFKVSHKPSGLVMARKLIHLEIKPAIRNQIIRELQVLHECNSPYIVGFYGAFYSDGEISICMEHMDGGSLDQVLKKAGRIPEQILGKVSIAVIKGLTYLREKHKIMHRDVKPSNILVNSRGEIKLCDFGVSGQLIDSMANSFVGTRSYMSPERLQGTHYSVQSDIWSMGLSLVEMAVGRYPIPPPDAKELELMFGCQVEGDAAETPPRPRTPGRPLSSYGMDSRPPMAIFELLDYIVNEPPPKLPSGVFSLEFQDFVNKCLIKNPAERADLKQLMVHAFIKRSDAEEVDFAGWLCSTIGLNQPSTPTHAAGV

remaining binding at 1 µM [1]: < 10% | remaining binding at 1 µM [2]: < 10% | remaining binding at 1 µM [3]: < 10% | remaining binding at 1 µM [4]: < 10% | remaining binding at 1 µM [5]: < 10% | remaining binding at 1 µM (ABL1-nonphosphorylated): < 10% | remaining binding at 1 µM (ABL1-phosphorylated): < 10% | remaining binding at 1 µM (AURKA): < 10% | remaining binding at 1 µM (AURKC): < 10% | remaining binding at 1 µM (AXL): < 10% | remaining binding at 1 µM (CDK4-cyclinD3): < 10% | remaining binding at 1 µM (CDK4-cycllinDl): < 10% | remaining binding at 1 µM (DYRK2): < 10% | remaining binding at 1 µM (ERK1): < 10% | remaining binding at 1 µM (ERK2): < 10% | remaining binding at 1 µM (ERK4): < 10% | remaining binding at 1 µM (GSK3A): < 10% | remaining binding at 1 µM (HIPK2): < 10% | remaining binding at 1 µM (HIPK4): < 10% | remaining binding at 1 µM [6]: < 10% | remaining binding at 1 µM [7]: < 10% | remaining binding at 1 µM (KIT(D816H)): < 10% | remaining binding at 1 µM (KIT(V559D, T670I)): < 10% | remaining binding at 1 µM (MAP3K3): < 10% | remaining binding at 1 µM (MEK2): < 10% | remaining binding at 1 µM (MEKI): < 10% | remaining binding at 1 µM (PAK2): < 10% | remaining binding at 1 µM (PAK3): < 10% | % control (PAK5): less than 10 % control | remaining binding at 1 µM (PAKI): < 10% | remaining binding at 1 µM (ROCK2): < 10% | remaining binding at 1 µM (ROCKI): < 10% | remaining binding at 1 µM (YES1): < 10%
Structure (SMILES): COc1ccc2nc(-c3n[nH]c4ccc(C(=O)N[C@H]5CC[C@H](N)C5)cc34)[nH]c2c1 [Example 32, N-((1S,3S)-3-aminocyclopentyl)-3-(6-methoxy-1H-benzo[d]imidazol-2-yl)-1H-indazole-5-carboxamide]
remaining binding at 1 µM (ERK8): < 10%

Source: patent US20260234129A1, “NOVEL IMIDAZOLE DERIVATIVE AND USE THEREOF” (PELEMED CO., LTD., priority 2023, published 2026)
